The text below walks through data of patent US10428081B2, “EGFR inhibitor, preparation method and use thereof” (Shanghai Hansoh Biomedical Co., Ltd., priority 2014, dated 2019).

Structures are written as SMILES.

Assay [1] deals with exon 20 T790M mutant-type EGFR enzyme (Homo sapiens, UniProt P00533, T790M). In words: Enzymologic experiment of T790M mutant-type EGFR (TR-FRET). The settings on record: for IC50: T790M EGFR enzyme, TR-FRET, ATP 1 to 10 uM; for Selectivity of wild-type/mutant-type: ratio WT IC50 / T790M IC50, enzyme. It is filed as biochemical. Put shortly:
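Compound dilutions preincubated 10 min at room temperature; reaction ended with EDTA, then labeled antibody added for 1 h at room temperature. Inhibition rates derived from TR-FRET fluorescence signal, and IC50 obtained by curve fitting across concentrations.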
(In general: TR-FRET usually uses a lanthanide donor and a delayed reading to cut background.)

A further assay has as its target wild-type EGFR enzyme (Homo sapiens, UniProt P00533). In words: Enzymologic experiment of wild-type (WT) EGFR (TR-FRET). The format is biochemical. The settings on record: ATP 0.1 to 5 uM. Put shortly:
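Wild-type EGFR (0.1 to 1 nM final) preincubated with serially diluted compound for 10 minutes at room temperature; reaction stopped with EDTA, then labelled antibody added for 1 hour at room temperature. TR-FRET signal converted to inhibition rates; IC50 from curve fitting across concentrations.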

In the next assay the test system is NCI-H1975 cells. In words: Inhibition of NCI-H1975 cell proliferation (CellTiter-Glo). It is filed as cell-based. The settings on record: for IC50: Homo sapiens, NCI-H1975, 72 h, NCI-H1975 cell proliferation, 72 hours, CellTiter-Glo, read-out: EGFR IC50 (nM) H1975; for Selectivity of wild-type/mutant-type: ratio A431 IC50 / H1975 IC50, cells. A general note: In ATP-based viability assays light output follows the ATP content of the culture.

The test system of the next assay is A431 cells. In words: Inhibition of A431 cell proliferation (CellTiter-Glo). The format is cell-based. The settings on record: Homo sapiens, A-431, 72 h, read-out: EGFR IC50 (nM) A431. The method, boiled down: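 Viability read as CellTiter-Glo luminescence; IC50 by curve fitting of inhibition rates.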

Sequence of exon 20 T790M mutant-type EGFR enzyme (P00533 25-1210 T790M): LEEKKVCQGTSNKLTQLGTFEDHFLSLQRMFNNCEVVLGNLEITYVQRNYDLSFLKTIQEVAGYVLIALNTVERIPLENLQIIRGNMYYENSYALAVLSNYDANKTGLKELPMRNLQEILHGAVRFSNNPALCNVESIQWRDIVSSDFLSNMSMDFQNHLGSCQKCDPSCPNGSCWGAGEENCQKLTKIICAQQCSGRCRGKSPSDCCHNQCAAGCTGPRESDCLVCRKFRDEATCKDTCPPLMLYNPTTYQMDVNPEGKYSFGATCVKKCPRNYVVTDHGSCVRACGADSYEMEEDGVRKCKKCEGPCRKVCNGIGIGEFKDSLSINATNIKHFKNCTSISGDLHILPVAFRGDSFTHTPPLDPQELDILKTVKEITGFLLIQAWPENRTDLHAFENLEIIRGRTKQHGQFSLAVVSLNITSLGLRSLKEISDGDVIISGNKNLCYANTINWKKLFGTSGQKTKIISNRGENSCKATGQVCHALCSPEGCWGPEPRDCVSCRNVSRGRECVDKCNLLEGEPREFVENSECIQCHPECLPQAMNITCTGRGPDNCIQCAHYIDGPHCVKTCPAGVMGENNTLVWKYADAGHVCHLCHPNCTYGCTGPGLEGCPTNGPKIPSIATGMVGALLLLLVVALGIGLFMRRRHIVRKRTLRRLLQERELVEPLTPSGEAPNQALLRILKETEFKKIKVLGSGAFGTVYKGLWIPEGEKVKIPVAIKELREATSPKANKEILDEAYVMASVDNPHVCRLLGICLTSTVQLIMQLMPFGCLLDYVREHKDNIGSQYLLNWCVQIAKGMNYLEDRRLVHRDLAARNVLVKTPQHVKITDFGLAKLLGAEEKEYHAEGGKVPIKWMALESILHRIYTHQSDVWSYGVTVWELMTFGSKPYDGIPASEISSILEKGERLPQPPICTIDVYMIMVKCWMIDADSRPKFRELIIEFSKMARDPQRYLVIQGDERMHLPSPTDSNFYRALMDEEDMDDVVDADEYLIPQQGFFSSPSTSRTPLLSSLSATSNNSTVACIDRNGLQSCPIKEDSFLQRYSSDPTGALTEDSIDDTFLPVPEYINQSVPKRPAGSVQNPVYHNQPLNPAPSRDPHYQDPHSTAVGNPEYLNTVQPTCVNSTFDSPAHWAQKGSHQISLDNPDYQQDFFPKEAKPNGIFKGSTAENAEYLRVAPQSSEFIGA
Sequence of wild-type EGFR enzyme (P00533 25-1210): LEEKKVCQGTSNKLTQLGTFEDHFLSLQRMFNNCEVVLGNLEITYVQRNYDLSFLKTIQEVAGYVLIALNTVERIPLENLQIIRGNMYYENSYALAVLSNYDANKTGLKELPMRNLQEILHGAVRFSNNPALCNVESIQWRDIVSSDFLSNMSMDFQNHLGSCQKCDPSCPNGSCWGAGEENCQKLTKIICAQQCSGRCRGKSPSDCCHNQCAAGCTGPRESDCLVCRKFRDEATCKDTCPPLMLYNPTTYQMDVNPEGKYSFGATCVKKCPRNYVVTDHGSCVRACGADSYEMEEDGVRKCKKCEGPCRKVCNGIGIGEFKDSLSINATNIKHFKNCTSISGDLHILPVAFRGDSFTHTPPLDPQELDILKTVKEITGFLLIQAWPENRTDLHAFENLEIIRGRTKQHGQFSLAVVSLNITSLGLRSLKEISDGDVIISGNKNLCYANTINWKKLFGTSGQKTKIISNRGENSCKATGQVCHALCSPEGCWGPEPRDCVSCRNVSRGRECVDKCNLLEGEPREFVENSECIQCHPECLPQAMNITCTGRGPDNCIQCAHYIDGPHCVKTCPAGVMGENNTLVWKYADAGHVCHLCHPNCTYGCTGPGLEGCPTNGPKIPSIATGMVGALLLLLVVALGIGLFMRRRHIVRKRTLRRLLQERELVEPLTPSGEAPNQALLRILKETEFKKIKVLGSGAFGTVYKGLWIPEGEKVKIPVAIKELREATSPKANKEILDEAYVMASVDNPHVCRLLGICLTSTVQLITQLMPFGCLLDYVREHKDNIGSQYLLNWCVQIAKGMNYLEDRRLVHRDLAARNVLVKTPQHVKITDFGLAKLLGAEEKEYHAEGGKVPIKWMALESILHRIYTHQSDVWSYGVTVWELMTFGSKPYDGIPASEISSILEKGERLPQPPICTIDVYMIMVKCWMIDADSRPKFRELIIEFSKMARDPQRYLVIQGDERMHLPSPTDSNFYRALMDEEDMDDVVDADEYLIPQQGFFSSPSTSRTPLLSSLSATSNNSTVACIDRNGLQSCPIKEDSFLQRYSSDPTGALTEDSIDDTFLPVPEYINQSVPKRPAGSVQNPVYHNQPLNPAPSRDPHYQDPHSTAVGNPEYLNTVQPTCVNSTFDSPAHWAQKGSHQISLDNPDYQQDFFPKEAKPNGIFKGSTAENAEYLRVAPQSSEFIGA

For orientation: IC50 means the point on the concentration scale where inhibition reaches its midpoint. As to `C=CC(=O)Nc1cc(Nc2nccc(-n3nc(C4CC4)c4ccccc43)n2)c(OC)cc1N(C)CCN(C)C` [Example 44, N-(5-((4-(3-cyclopropyl-1H-indazol-1-yl)pyrimidin-2-yl)amino)-2-((2-(dimethylamino)ethyl)(methyl)amino)-4-methoxyphenyl)acrylamide], the IC50 in assay [1] worked out at 0.38 nM; against wild-type EGFR enzyme, 2.5 nM; with NCI-H1975 cells, 7.13 nM; in the assay on A431 cells it was 406 nM. Also, the results for the Selectivity of wild-type/mutant-type (in assay [1]; with NCI-H1975 cells) were 6.58 and 56.93, respectively.
Regarding `C=CC(=O)Nc1cc(Nc2nccc(-n3ncc4cc(OCCOC)ccc43)n2)c(OC)cc1N(C)CCN(C)C` [Example 121, N-(2-((2-(dimethylamino)ethyl)(methyl)amino)-4-methoxy-5-((4-(5-(2-methoxyethoxy)-1H-indazol-1-yl)pyrimidin-2-yl)amino)phenyl)acrylamide], the IC50 came out at 0.4 nM in assay [1], 3.5 nM against wild-type EGFR enzyme, 2.09 nM in the assay on NCI-H1975 cells and 348 nM in the assay with A431 cells. The Selectivity of wild-type/mutant-type in assay [1] is recorded as 8.75; in the assay with NCI-H1975 cells, 166.41.
Consider `C=CC(=O)Nc1cc(Nc2nccc(-c3cn(C)c4cc(C5CC5)ccc34)n2)c(OC)cc1N(C)CCN(C)C` [Example 22, N-(5-((4-(6-cyclopropyl-1-methyl-1H-indol-3-yl)pyrimidin-2-yl)amino)-2-((2-(dimethylamino)ethyl)(methyl)amino)-4-methoxyphenyl)acrylamide], for which the IC50 in assay [1] was found to be 0.71 nM; against wild-type EGFR enzyme, 7.44 nM; in the assay with NCI-H1975 cells, 13.2 nM; in the assay on A431 cells, 800 nM. For the same compound, the Selectivity of wild-type/mutant-type in assay [1] is reported as 10.4; in the assay with NCI-H1975 cells it was 60.6.
With `C=CC(=O)Nc1cc(Nc2ncc(C(F)(F)F)c(-n3nc(CC)c4cc(C#N)ccc43)n2)c(OC)cc1N(C)CCN(C)C` [Example 117, N-(5-((4-(5-cyano-3-ethyl-1H-indazol-1-yl)-5-(trifluoromethyl)pyrimidin-2-yl)amino)-2-((2-(dimethylamino)ethyl)(methyl)amino)-4-methoxyphenyl)acrylamide], the IC50 in assay [1] was determined as 0.61 nM; against wild-type EGFR enzyme, 43.3 nM; in the assay on NCI-H1975 cells it was 29.9 nM; in the assay with A431 cells it was 199 nM. The Selectivity of wild-type/mutant-type in assay [1] was 71.05; with NCI-H1975 cells, 6.65.
Take `C=CC(=O)Nc1cc(Nc2nccc(-c3cn(C)c4ccccc34)n2)c(OC(F)F)cc1N1CCN(C)CC1` [Example 2, N-(4-(difluoromethoxy)-5-((4-(1-methyl-1H-indol-3-yl)pyrimidin-2-yl)amino)-2-(4-methylpiperazine-1-yl)phenyl)acrylamide]: the IC50 came out at 9.26 nM in assay [1], 143 nM at wild-type EGFR enzyme, 1.36 nM in the assay on NCI-H1975 cells and 224 nM with A431 cells. Also, the Selectivity of wild-type/mutant-type in assay [1] turned out to be 15; with NCI-H1975 cells, 164.
For the compound `C=CC(=O)Nc1cc(Nc2ncc(C(F)(F)F)c(-c3cn(S(=O)(=O)N(C)C)c4cc(OC)ccc34)n2)c(OC)cc1N(C)CCN(C)C` [Example 143, N-(2-((2-(dimethylamino)ethyl)(methyl)amino)-5-((4-(1-(N,N-dimethylsulfamoyl)-6-methoxy-1H-indol-3-yl)-5-(trifluoromethyl)pyrimidin-2-yl)amino)-4-methoxyphenyl)acrylamide], the half-maximal inhibitory concentration (IC50) amounted to 0.44 nM in assay [1], 4.18 nM on wild-type EGFR enzyme, 8.29 nM with NCI-H1975 cells and 377 nM with A431 cells. Moreover, the Selectivity of wild-type/mutant-type was found to be 9.50 in assay [1] and 45.44 in the assay with NCI-H1975 cells.
For `C=CC(=O)Nc1cc(Nc2ncc(Cl)c(-c3cn(C)c4ccccc34)n2)c(OC(F)F)cc1N(C)CCN(C)C` [Example 5, N-(5-((5-chloro-4-(1-methyl-1H-indol-3-yl)pyrimidin-2-yl)amino)-4-(difluoromethoxy)-2-((2-(dimethylamino)ethyl)(methyl)amino)phenyl)acrylamide], the IC50 in assay [1] came to 0.32 nM; against wild-type EGFR enzyme, 0.8 nM; in the assay on NCI-H1975 cells, 5.9 nM; in the assay on A431 cells it was 212 nM. Also, the Selectivity of wild-type/mutant-type in assay [1] came to 2.5; with NCI-H1975 cells, 36.
As to `C=CC(=O)Nc1cc(Nc2nccc(-n3cnc4ccc(OC)cc43)n2)c(OC)cc1N(C)CCN(C)C` [Example 60, N-(2-((2-(dimethylamino)ethyl)(methyl)amino)-4-methoxy-5-((4-(6-methoxy-1H-benzo[d]imidazol-1-yl)pyrimidin-2-yl)amino)phenyl)acrylamide], the IC50 in assay [1] came out at 0.33 nM; against wild-type EGFR enzyme, 2.03 nM; in the assay with NCI-H1975 cells it was 2.94 nM; in the assay with A431 cells it was 149 nM. Further, the Selectivity of wild-type/mutant-type in assay [1] worked out at 6.16; in the assay on NCI-H1975 cells, 50.82.
For `C=CC(=O)Nc1cc(Nc2nccc(-c3c[nH]c4c(C5CC5)cccc34)n2)c(OC)cc1N(C)CCN(C)C` [Example 92, N-(5-((4-(7-cyclopropyl-1H-indol-3-yl)pyrimidin-2-yl)amino)-2-((2-(dimethylamino)ethyl)(methyl)amino)-4-methoxyphenyl)acrylamide], the IC50 was found to be 0.16 nM in assay [1], 0.4 nM at wild-type EGFR enzyme, 1.95 nM in the assay with NCI-H1975 cells and 9.22 nM in the assay with A431 cells. Also, the results for the Selectivity of wild-type/mutant-type (in assay [1]; with NCI-H1975 cells) were 2.5 and 4.73, respectively.
`C=CC(=O)Nc1cc(Nc2ncc(C(F)(F)F)c(-c3cn(C)c4cc(OC)ccc34)n2)c(OC)cc1N(C)CCN(C)C` [Example 99, N-(2-((2-(dimethylamino)ethyl)(methyl)amino)-4-methoxy-5-((4-(6-methoxy-1-methyl-1H-indol-3-yl)-5-(trifluoromethyl)pyrimidin-2-yl)amino)phenyl)acrylamide]: the IC50 is 0.21 nM in assay [1], 5.01 nM at wild-type EGFR enzyme, 2.08 nM in the assay on NCI-H1975 cells and 36.5 nM in the assay on A431 cells. Also, the figures for the Selectivity of wild-type/mutant-type (in assay [1]; in the assay on NCI-H1975 cells) were 23.86 and 17.57, respectively.
Turning to `C=CC(=O)Nc1cc(Nc2nccc(-c3cn(C)c4ccc(OC)cc34)n2)c(OC)cc1N(C)CCN(C)C` [Example 24, N-(2-((2-(dimethylamino)ethyl)(methyl)amino)-4-methoxy-5-((4-(5-methoxy-1-methyl-1H-indol-3-yl)pyrimidin-2-yl)amino)phenyl)acrylamide], the half-maximal inhibitory concentration (IC50) in assay [1] turned out to be 3.53 nM; against wild-type EGFR enzyme, 4.02 nM; with NCI-H1975 cells, 8.62 nM; with A431 cells, 453 nM. Also, the Selectivity of wild-type/mutant-type was found to be 1.1 in assay [1] and 52.59 with NCI-H1975 cells.
Take `C=CC(=O)Nc1cc(Nc2nccc(-n3ncc4c(OC)cccc43)n2)c(OC)cc1N(C)CCN1CCCC1` [Example 135, N-(4-methoxy-5-((4-(4-methoxy-1H-indazol-1-yl)pyrimidin-2-yl)amino)-2-(methyl(2-(pyrrolidin-1-yl)ethyl)amino)phenyl)acrylamide]: the IC50 worked out at 0.46 nM in assay [1], 4.62 nM at wild-type EGFR enzyme, 7.5 nM in the assay on NCI-H1975 cells and 444 nM in the assay with A431 cells. Also, the Selectivity of wild-type/mutant-type came to 10.04 in assay [1] and 59.19 in the assay with NCI-H1975 cells.
Regarding `C=CC(=O)Nc1cc(Nc2nccc(-c3cn(C)c4cc(C=C)ccc34)n2)c(OC)cc1N(C)CCN(C)C` [Example 96, N-(2-((2-(dimethylamino)ethyl)(methyl)amino)-4-methoxy-5-((4-(1-methyl-6-vinyl-1H-indol-3-yl)pyrimidin-2-yl)amino)phenyl)acrylamide], the IC50 was 1.57 nM in assay [1], 8.9 nM at wild-type EGFR enzyme, 17.5 nM in the assay on NCI-H1975 cells and 324 nM in the assay with A431 cells. The Selectivity of wild-type/mutant-type is 5.67 in assay [1] and 18.51 in the assay with NCI-H1975 cells.
Turning to `C#CCn1cc(-c2ccnc(Nc3cc(NC(=O)C=C)c(N(C)CCN(C)C)cc3OC)n2)c2ccccc21` [Example 140, N-(2-((2-(dimethylamino)ethyl)(methyl)amino)-4-methoxy-5-((4-(1-(prop-2-yn-1-yl)-1H-indol-3-yl)pyrimidin-2-yl)amino)phenyl)acrylamide], the IC50 is 0.58 nM in assay [1], 8.56 nM against wild-type EGFR enzyme, 2.66 nM with NCI-H1975 cells and 576 nM with A431 cells. The Selectivity of wild-type/mutant-type is on record as 14.76 in assay [1] and 216.69 with NCI-H1975 cells.
With `C=CC(=O)Nc1cc(Nc2nccc(-n3ncc4cc(OC)ccc43)n2)c(OC)cc1N(C)CCN1CCCC1` [Example 137, N-(4-methoxy-5-((4-(5-methoxy-1H-indazol-1-yl)pyrimidin-2-yl)amino)-2-(methyl(2-(pyrrolidin-1-yl)ethyl)amino)phenyl)acrylamide], the IC50 in assay [1] was 1.03 nM; against wild-type EGFR enzyme it was 6.31 nM; in the assay on NCI-H1975 cells, 9.52 nM; in the assay with A431 cells it was 406 nM. For the same compound, the Selectivity of wild-type/mutant-type in assay [1] was 6.13; in the assay on NCI-H1975 cells, 42.70.
